Source: ChEMBL document CHEMBL1121942, “Sparsophenicol: a new synthetic hybrid antibiotic inhibiting ribosomal peptide synthesis” (J Med Chem, 1982)

Experiments:
Escherichia coli [1] = assay: Tested for the percent inhibition against N-acetyl-L-phenylalanyl tRNA-70S Escherichia coli ribosome poly-U complex at 3.8*10e-4M concentration; assay type: functional
Escherichia coli [2] = assay: Tested for the inhibitory activity against N-acetyl-L-phenylalanyl tRNA-70S Escherichia coli ribosome poly-U complex; assay type: functional, organism-based

Row | Compound | Inhibition (Escherichia coli [1]) [%] | Ki (Escherichia coli [2]) [µM]
1 | Cc1nc(O)nc(O)c1/C=C/C(=O)ON1C(=O)CCCC1=O | 20 | –
2 | Cc1nc(O)nc(O)c1/C=C/C(=O)N(C)C | – | 350
3 | Cc1nc(O)nc(O)c1/C=C/C(=O)NC(CO)C(O)c1ccc([N+](=O)[O-])cc1 (centres undefined) | – | 3
4 | COc1ccc(C[C@H](N)C(=O)N[C@H]2[C@@H](O)[C@H](n3cnc4c(N(C)C)ncnc43)O[C@@H]2CO)cc1 [PUROMYCIN] | – | 220
